A word on the IC50: it is the concentration that inhibits the measured activity by half. Higher therefore signals a need for much substance.

In the test the test system is HCT-116. Nature of the test: Compound was evaluated by a cytotoxicity assay in HCT116 human colon carcinoma cell line. The test is classed as functional, cell-based.
`CC(=O)O[C@H]1C(=O)[C@@]2(C)C([C@H](OC(=O)c3ccccc3)[C@]3(O)C[C@H](OC(=O)[C@H](F)[C@@H](NC(=O)c4ccccc4)c4ccccc4)C(C)=C1C3(C)C)[C@]1(OC(C)=O)CO[C@@H]1C[C@@H]2O` (some centres undefined) came in with a half-inhibitory concentration (IC50) of 475 nM.

Turning to `CO[C@@H](C(=O)O[C@H]1C[C@@]2(O)[C@@H](OC(=O)c3ccccc3)C3[C@](C)(C(=O)[C@H](OC(C)=O)C(=C1C)C2(C)C)[C@@H](O)C[C@H]1OC[C@@]31OC(C)=O)[C@@H](NC(=O)c1ccccc1)c1ccccc1` (some centres undefined), the midpoint of inhibition, the IC50, lay at 866 nM.

For `CC(=O)O[C@H]1C(=O)[C@@]2(C)C([C@H](OC(=O)c3ccccc3)[C@]3(O)C[C@H](OC(=O)C[C@@H](NC(=O)c4ccccc4)c4ccccc4)C(C)=C1C3(C)C)[C@]1(OC(C)=O)CO[C@@H]1C[C@@H]2O` (some centres undefined), half-maximal inhibition (IC50) was put at 297 nM.

On to `CC(=O)O[C@H]1C(=O)[C@@]2(C)[C@H]([C@H](OC(=O)c3ccccc3)[C@]3(O)C[C@H](OC(=O)[C@H](O)[C@@H](NC(=O)c4ccccc4)c4ccccc4)C(C)=C1C3(C)C)[C@]1(OC(C)=O)CO[C@@H]1C[C@@H]2O` [PACLITAXEL], for which inhibition was half-maximal at 4 nM (IC50). Compared with the last compound, the IC50 is about 74-fold lower.
